# Patent US12533341B2, “Small molecule inhibitors of voltage-gated sodium channel 1.7 and methods of using same” (Duke University, priority 2019, dated 2026)
# Entries after “also recorded” stand apart in the source; their conditions may differ.
# How the values were obtained:
# [1] = target: human Nav1.7 (Homo sapiens, UniProt Q15858); assay: Whole-cell patch-clamp of sodium currents in Nav1.7-expressing HEK293 cells; format: cell-based; conditions: 10 μM, screen of compounds 1-9 (FIG. 3)
# Method: HEK-hNav1.7 stable cell line was purchased from SB Drug Discovery (Glasgow, United Kingdom). Human embryonic kidney 293 (HEK293) cells were obtained from the ATCC and maintained at the Duke cell culture facility. Cells were cultured in high-glucose (4.5 g/L) DMEM containing 10% (v/v) FBS (Gibco) and streptomycin/penicillin. For Nav1.7-expressing HEK293 cells, an additional antibiotic, blasticidin, was included. hNav1.5 transfection was performed by Lipofectamine 2000 at 70% confluence using 2 μg cDNA. The transfected cells were cultured in the same growth medium for 48 h before biochemical or electrophysiological studies.
# Whole-cell patch-clamp recordings were conducted at room temperature. Patch pipettes pulled from borosilicate capillaries (World Precision Instruments, Inc., Sarasota, FL) were used to record transient Na currents with an Axopatch-200B amplifier with a Digidata 1440A (Axon Instruments, Sunnyvale CA). The resistance was set to 3-4 MΩ when filled with pipette solution. The pipette solution contained (in mmol/L): CsCl 130, NaCl 9, MgCl2 1, EGTA 10, HEPES 10, adjusted to pH 7.3 with CsOH. The external solution for recording transient Na^+ currents contained (in mmol/L): NaCl 131, TEACl 10, CsCl 10, CaCl2) 1, MgCl2 2, CdCl2 0.3, 4-aminopyridine 3, HEPES 10, glucose 10, adjusted to pH 7.4 with NaOH. The recording chamber (300 μL) was continuously superfused at 3-4 mL/min. Series resistance was compensated (>80%) and leak subtraction was performed. Data were low-pass-filtered at 2 kHz and sampled at 10 kHz. pClamp10 (Axon Instruments) software was used during experiments and analysis. In voltage-clamp experiments, transient Na+ currents were evoked by a test pulse to 0 mV from the holding potential (−70 mV).
# The effects of the 9 selected compounds on Nav1.7 channel activities were tested using patch-clamp recordings on human Nav1.7 expressing HEK293 cells (FIG. 3, FIG. 4). In each cell, sodium currents were recorded for 13 min, and candidate inhibitors (10 μM) were incubated for 2 min after 2 min baseline recording (FIG. 3). Compound was applied at the beginning of the second minute for two minutes (denoted as a horizontal line above the X-axis). Sodium currents were recorded at equal intervals (every 20 seconds, 40 recordings per compound per cell). Data was analyzed with a two-way repeated measures ANOVA, followed by a post-hoc test of the last timepoint Bonferroni-corrected for 9 pairwise comparisons (each compound was compared with control). […] Sample size n=3 to 7 cells per group.
# For FIG. 4C, sample size was n=5 to 7 cells per group. Compound was applied at the beginning of the second minute for two minutes (denoted as a horizontal line above the X-axis). Sodium currents were recorded every 20 seconds.
# [2] = system: acute and chronic itch; assay: Itch models (acute, dry skin, allergic contact dermatitis); format: in vivo, mouse; conditions: intrathecally at a dose of 30 mg/kg, dry skin and ACD itch models
# Method: Mice are habituated to the testing environment daily for at least two days before analysis. Mice are shaved at the back of the neck the day before injection. Mice are left in small plastic chambers (14×18×12 cm) on an elevated metal mesh floor and allowed 30 min for habituation before examination. To elicit acute itch, pruritic agent 48/80 or chloroquine are injected intradermally in the nape of the neck and the number of scratched are counted every 5 min for 30 min after the injection. A scratch is counted when a mouse lifts its hindpaw to scratch the shaved region and returns the paw to the floor or to the mouth for the licking (Liu, et al. 2012; J Cin. Invest. 122(6):2195-2207).
# To induce chronic itch, the neck skin is painted with acetone and diethyl ether (1:1) followed by water twice a day for 4 days, and spontaneous itch is examined by counting the number of scratches for 60 minutes on day 5. (Liu, et al. 2012, supra).
# Chronic itch is induced by applying the hapten 1-fluoro-2,4-dinitrobenzene (DNFB) onto the back skin. (Liu, Ji, et al. 2016; Pain. 157(4):806-817; Zhao, et al. 2013; J Clin. Invest. 123(11):4769-4780). DNFB is dissolved in a mixture of acetone:olive oil (4:1) for sensitization and challenge. One day before sensitization, the surface of the abdomen and the nape of the neck are shaved. Mice are sensitized with 0.5% DNFB solution (50 μL) by topical application to a ˜2 cm^2 area of abdomen skin. Five days later, mice are challenged with 0.2% DNFB solution (30 μL) by painting the shave neck area, then every other day for one week. Spontaneous scratching behaviors are videoed for 1 hour, at 24 hours after each challenge. The behavioral tests of itch are performed blindly.
# Animals in the itch models are dosed with N-substituted indoles 10, 11, and 12, which are administered intrathecally at a dose of 30 mg/kg.
# [3] = system: neuropathic pain (CCI, SNI); assay: Neuropathic pain models (CCI, SNI); format: in vivo, mouse; conditions: intrathecally at a dose of 30 mg/kg; CCI and SNI models
# Method: Neuropathic pain is produced by chronic constriction injury (CCI) of the sciatic nerve. Mice are anesthetized with isoflurane, and three ligatures are 7-0 prolene placed around the nerve proximal to the trifurcation (1 mm between ligatures). The ligatures are loosely tied until a short flick of the ipsilateral hind limb is observed (Chen, Ji, et al. 2015; J Clin. Invest. 125(8):3226-3240).
# SNI model. Neuropathic pain is produced by spared nerve injury (SNI). SNI surgery is conducted with a 5.0 silk tight ligation of the tibial and common peroneal nerves followed by transection and removal of a 3-5 mm nerve portion.
# Animals in the neuropathic pain models are dosed with N-substituted indoles according to the present disclosure [N-(methylsulfonyl)-3-(3-oxo-1-(3-phenoxyphenyl)-3-((2-(pyrrolidin-1-yl)ethyl)amino)propyl)-1H-indole-1-carboxamide (10); (Z)-N-(5-((3-(3-oxo-1-(3-phenoxyphenyl)-3-((2-(pyrrolidin-1-yl)ethyl)amino)propyl)-1H-indol-1-yl)sulfonyl)-1,3,4-thiadiazol-2-yl)acetimidic acid (11); and 3-(3-phenoxyphenyl)-N-(2-(pyrrolidin-1-yl)ethyl)-3-(1-(thiazol-2-ylsulfonyl)-1H-indol-3-yl)propanamide (12)]. The compounds are synthesized according to the route outlined in Scheme 1 and are administered intrathecally at a dose of 30 mg/kg.
# [4] = system: paclitaxel-induced mechanical allodynia; assay: Paclitaxel-induced neuropathic pain model (von Frey); format: in vivo, mouse; conditions: intrathecal 10 nmol and 30 nmol, mice
# Method: Intraperitoneal injection of paclitaxel (PTX, 2 mg/kg for multiple injections at day 0, 2, 4, and 6) was given to generate chemotherapy-associated neuropathic pain. Neuropathic pain behavior was tested 3 weeks after PTX injection using a von Frey test. Briefly, animals were habituated to the testing environment daily for at least 2 days before the baseline testing. Animals were confined in boxes placed on an elevated metal mesh floor and the hind paws were stimulated with a series of von Frey hairs with logarithmically increasing stiffness (0.02-2.56 g, Stoelting), presented perpendicularly to the central plantar surface. The 50% paw withdrawal threshold was determined by an up-down method.
# Chain of human Nav1.7 (Q15858 whole entry): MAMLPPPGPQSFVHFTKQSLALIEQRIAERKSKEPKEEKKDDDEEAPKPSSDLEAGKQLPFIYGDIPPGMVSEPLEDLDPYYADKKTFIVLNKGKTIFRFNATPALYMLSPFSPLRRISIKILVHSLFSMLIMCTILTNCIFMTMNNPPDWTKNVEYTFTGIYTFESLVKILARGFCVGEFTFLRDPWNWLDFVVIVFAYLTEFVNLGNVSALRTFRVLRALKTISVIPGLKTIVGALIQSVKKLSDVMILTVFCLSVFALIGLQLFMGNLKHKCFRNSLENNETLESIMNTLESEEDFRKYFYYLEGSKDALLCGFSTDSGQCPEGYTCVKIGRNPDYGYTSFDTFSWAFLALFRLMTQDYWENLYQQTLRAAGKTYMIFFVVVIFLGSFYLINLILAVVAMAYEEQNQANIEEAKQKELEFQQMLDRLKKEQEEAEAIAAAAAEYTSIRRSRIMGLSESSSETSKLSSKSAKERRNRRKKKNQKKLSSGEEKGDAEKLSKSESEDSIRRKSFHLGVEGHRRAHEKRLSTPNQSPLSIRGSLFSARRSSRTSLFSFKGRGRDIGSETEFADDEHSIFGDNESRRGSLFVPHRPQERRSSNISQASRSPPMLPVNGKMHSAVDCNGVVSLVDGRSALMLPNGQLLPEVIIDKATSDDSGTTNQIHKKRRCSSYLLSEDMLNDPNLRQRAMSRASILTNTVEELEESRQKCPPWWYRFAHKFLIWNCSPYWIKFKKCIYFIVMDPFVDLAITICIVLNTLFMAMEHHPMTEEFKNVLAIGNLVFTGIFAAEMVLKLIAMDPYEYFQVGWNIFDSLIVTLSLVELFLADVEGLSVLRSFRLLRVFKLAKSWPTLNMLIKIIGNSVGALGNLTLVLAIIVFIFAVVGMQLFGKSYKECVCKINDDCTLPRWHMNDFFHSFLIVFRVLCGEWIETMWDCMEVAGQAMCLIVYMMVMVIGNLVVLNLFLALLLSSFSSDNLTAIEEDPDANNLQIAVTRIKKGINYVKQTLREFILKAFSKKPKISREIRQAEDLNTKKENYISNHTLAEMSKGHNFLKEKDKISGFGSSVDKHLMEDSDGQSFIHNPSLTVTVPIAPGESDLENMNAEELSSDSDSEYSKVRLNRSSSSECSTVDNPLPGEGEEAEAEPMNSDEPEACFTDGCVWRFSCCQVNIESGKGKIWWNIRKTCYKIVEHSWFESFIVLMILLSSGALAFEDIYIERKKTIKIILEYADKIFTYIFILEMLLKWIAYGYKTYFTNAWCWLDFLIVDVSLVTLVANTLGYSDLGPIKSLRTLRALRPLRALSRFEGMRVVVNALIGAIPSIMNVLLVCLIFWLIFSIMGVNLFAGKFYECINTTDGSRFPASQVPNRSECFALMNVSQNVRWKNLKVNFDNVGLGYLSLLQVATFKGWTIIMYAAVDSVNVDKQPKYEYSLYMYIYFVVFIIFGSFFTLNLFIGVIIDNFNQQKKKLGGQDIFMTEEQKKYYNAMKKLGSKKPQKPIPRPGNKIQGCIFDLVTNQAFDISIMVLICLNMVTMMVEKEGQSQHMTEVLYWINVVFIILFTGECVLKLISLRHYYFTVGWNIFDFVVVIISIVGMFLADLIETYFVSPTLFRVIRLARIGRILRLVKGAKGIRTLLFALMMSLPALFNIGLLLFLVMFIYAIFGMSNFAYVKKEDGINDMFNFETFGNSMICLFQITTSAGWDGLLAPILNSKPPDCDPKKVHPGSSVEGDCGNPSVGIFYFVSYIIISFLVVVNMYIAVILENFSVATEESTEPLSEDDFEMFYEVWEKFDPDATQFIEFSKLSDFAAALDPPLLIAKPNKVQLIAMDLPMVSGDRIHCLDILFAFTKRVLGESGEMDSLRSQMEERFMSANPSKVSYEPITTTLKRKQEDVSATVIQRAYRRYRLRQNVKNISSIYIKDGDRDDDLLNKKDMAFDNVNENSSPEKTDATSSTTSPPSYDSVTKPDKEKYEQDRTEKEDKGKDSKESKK
Structure (SMILES),difference in relative current from the control group at the last measurement [1],reduction of scratching in itch models [2],reduction of pain in neuropathic pain models [3],anti-allodynic effect in the paclitaxel model [4]
Cc1ccc(Cn2cc(C(CC(=O)NCc3ccncc3)c3cccc(Oc4ccc(Cl)cc4)c3)c3ccccc32)cc1 (stereo not shown) [Compound 5],0.29,,,
COc1ccc(Cn2cc(C(CC(=O)NCc3ccccc3)c3cccc(OCc4ccccc4)c3)c3ccccc32)cc1 (stereo not shown) [Compound 7],0.35,,,
COc1ccc(Cn2cc(C(CC(=O)NCc3ccco3)c3cccc(Oc4ccccc4)c3)c3ccccc32)cc1 (stereo not shown) [Compound 8],0.36,,,
"CS(=O)(=O)NC(=O)n1cc(C(CC(=O)NCCN2CCCC2)c2cccc(Oc3ccccc3)c2)c2ccccc21 (stereo not shown) [Compound 10, N-(methylsulfonyl)-3-(3-oxo-1-(3-phenoxyphenyl)-3-((2-(pyrrolidin-1-yl)ethyl)amino)propyl)-1H-indole-1-carboxamide]",,Reduction of scratching is observed,Reduction of pain is observed,
"CC(=O)Nc1nnc(S(=O)(=O)n2cc(C(CC(=O)NCCN3CCCC3)c3cccc(Oc4ccccc4)c3)c3ccccc32)s1 (stereo not shown) [Compound 11, (Z)-N-(5-((3-(3-oxo-1-(3-phenoxyphenyl)-3-((2-(pyrrolidin-1-yl)ethyl)amino)propyl)-1H-indol-1-yl)sulfonyl)-1,3,4-thiadiazol-2-yl)acetimidic acid]",,Reduction of scratching is observed,Reduction of pain is observed,
"O=C(CC(c1cccc(Oc2ccccc2)c1)c1cn(S(=O)(=O)c2nccs2)c2ccccc12)NCCN1CCCC1 (stereo not shown) [Compound 12, 3-(3-phenoxyphenyl)-N-(2-(pyrrolidin-1-yl)ethyl)-3-(1-(thiazol-2-ylsulfonyl)-1H-indol-3-yl)propanamide]",,Reduction of scratching is observed,Reduction of pain is observed,
"Nc1[nH]ncc1-c1cc(Cl)ccc1Oc1cc(F)c(S(=O)(=O)Nc2cscn2)cc1Cl [PF-05089771, reference compound]",,,,failed to produce any anti-allodynic effect; also recorded: did not produce anti-allodynia effects
